The nature of one series: method code SF-HPLC, from DOI: 10.1021/jm00047a008, PMID: 7932579. As to conditions: pH 5.0.
Consider `Cc1ccc2c(c1)c(C)c1c3ccccc3nc-1n2C`, for which the logD was 2.04.

The same series, now with this note: pH 9.0.
The compound `c1ccc2nc3[nH]c4ccccc4c3cc2c1` returned a logD of 2.44.

The compound `Cc1ccc2nc3n(C)c4ccc(C)cc4c(C)c-3c2c1` showed a logD of 2.42. This logD and that of the compound before are within 0.2 log units of each other.

With `Cc1c2c3ccccc3nc-2n(C)c2c(C)cccc12`, the logD was determined as 2.46.

`Cc1cccc2c(C)c3c(nc12)[nH]c1ccccc13` registered a pH-dependent lipophilicity (logD) of 2.92.

Take `Cc1ccc2nc3[nH]c4ccc(C)cc4c3c(C)c2c1`: the logD is 2.58.

For the compound `Cn1c2nc3ccccc3c-2cc2ccccc21`, the logD amounted to 3.04.

`Cc1c2ccccc2nc2[nH]c3ccccc3c12` gave a logD of 2.69.

On to `Cc1c2c3ccccc3nc-2n(C)c2ccccc12`, for which the logD is 2.58.

The values above are taken from the SangsterLogP compilation.
